From paper PMC10541190 (The Journal of Clinical Investigation, 2023)

Legend:
ErbB1 (EGFR) = details: read-out: KD of binding or IC50 (nM), ErbB1; cited from earlier work
BLK = details: cited from earlier work
[1] = tested on: SARS-CoV-2 (USA-WA1/2020); test: microbe, parasite or virus in culture; format: cell-based; details: Severe acute respiratory syndrome coronavirus 2, Calu-3, read-out: EC50, SARS-CoV-2 infection
in vitro [2] = details: human
in vitro [3] = details: human; remark: listed apart in the source
VEEV (TC-83) = test: microbe, parasite or virus in culture; format: cell-based; details: Venezuelan equine encephalitis virus, U-87 MG, read-out: EC50, VEEV (TC-83) infection
ErbB2 = details: cited from earlier work
ErbB1 = details: cited from earlier work
ErbB4 = details: cited from earlier work
MAP2K5 = details: cited from earlier work
ErbB3 = details: cited from earlier work
BTK = details: cited from earlier work
SRMS = details: cited from earlier work
JAK = details: cited from earlier work

In the case of `C=CC(=O)N1CCC[C@@H](n2nc(-c3ccc(Oc4ccccc4)cc3)c3c(N)ncnc32)C1` [Ibrutinib], the IC50 (ErbB1 (EGFR)) is listed as 1.8 nM, the “Other targets: BLK (% of control)” value (BLK) is listed as “JAK (0%), BTK (0%), SRMS (0%), BLK (0.1%), ErbB3 (0.1%), MAP2K5 (0.2%)” and the EC50 [1] is listed as 800 nM. It also gave a CC50 (in vitro [2]) greater than 20000 nM, a CC50 (in vitro [3]) greater than 20000 nM and an EC50 (VEEV (TC-83)) of 500 nM. The “% of control, ErbB2” value (ErbB2) was 12.1 nM 0%, the “% of control, ErbB1” value (ErbB1) was 1.8 nM 1.8% and the “% of control, ErbB4” value (ErbB4) was 1.0 nM 0%. For the same compound, the “Other targets: MAP2K5 (% of control)” value (MAP2K5) was “JAK (0%), BTK (0%), SRMS (0%), BLK (0.1%), ErbB3 (0.1%), MAP2K5 (0.2%)”, the “Other targets: ErbB3 (% of control)” value (ErbB3) was “JAK (0%), BTK (0%), SRMS (0%), BLK (0.1%), ErbB3 (0.1%), MAP2K5 (0.2%)” and the “Other targets: BTK (% of control)” value (BTK) was “JAK (0%), BTK (0%), SRMS (0%), BLK (0.1%), ErbB3 (0.1%), MAP2K5 (0.2%)”. The “Other targets: SRMS (% of control)” value (SRMS) was “JAK (0%), BTK (0%), SRMS (0%), BLK (0.1%), ErbB3 (0.1%), MAP2K5 (0.2%)” and the “Other targets: JAK (% of control)” value (JAK) was “JAK (0%), BTK (0%), SRMS (0%), BLK (0.1%), ErbB3 (0.1%), MAP2K5 (0.2%)”.
